Reference: patent publication US20210299079A1, “MONOMETHYL FUMARATE-CARRIER CONJUGATES AND METHODS OF THEIR USE” (Flagship Pioneering Innovations V, Inc., priority 2018, published 2021)
Where a name gives a salt, the structure may show the parent alone.

How the values were obtained:
[1] = Stability of conjugates in Simulated Gastric Fluid (SGF); type: in vitro ADME; settings: SGF pH 1.6 with pepsin, 37° C., 1 μM compound
Procedure, shortened: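 Compound at 1 μM (from 1 mM DMSO stock) in pH 1.6 NaCl medium with FaSSIF powder and 0.1 mg/mL pepsin, mixed at 37° C. Aliquots quenched with equal volume acetonitrile at T0 and regular intervals; LC/MS gives degradation rate.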

[2] = Stability of conjugates in Simulated Intestinal Fluid (SIF); type: in vitro ADME; settings: SIF pH 6.7 with pancreatin, 37° C., 1 μM compound
Procedure, shortened: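 Compounds at 1 μM in fresh simulated intestinal fluid: FaSSIF powder in pH 6.7 phosphate buffer with pancreatin. Agitated at 37 °C; aliquots taken at T0 and regular intervals, quenched with 1 volume acetonitrile. Degradation rates determined by LC/MS.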

[3] = In vitro Colonic Material Stability Assay; type: in vitro ADME; settings: colonic material slurry in YCFAC media, anaerobic, 1 or 10 μM
Procedure, shortened: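 Anaerobically, a colonic material slurry (15% w/v) was inoculated into YCFAC or other suitable media. Compounds were added at 1 or 10 μM final. Samples taken at 0–2880 min were quenched with acetonitrile containing internal standard and analysed by LC/MS.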

[4] = system: experimental autoimmune encephalomyelitis (EAE); assay: In Vivo EAE Model of Multiple Sclerosis; design: species or system C57BL/6J mice; settings: Study 2, oral, amount approximately equimolar to 100 mg/kg DMF, 28 days
Procedure: For experimental autoimmune encephalomyelitis (EAE) study, 8- to 11-week-old C57BL/6J mice were anesthetized and subcutaneously injected with […] and […]. Pertussis toxin (200 ng/mouse) was applied i.p. on days 0. Daily clinical evaluation was performed via a 5-point scale, and the clinical progression was observed over 28 days (FIG. 2A). […] At the end of the study, flow cytometry analysis was performed on the spleen (n=8 per group). […] Statistical analysis was performed with GraphPad Prism (GraphPad Software). Unpaired t test was used to assess significance between the control (Vehicle) and each treatment group. For experimental autoimmune encephalomyelitis (EAE) studies, 8- to 11-week old C57BL/6J mice were anesthetized and subcutaneously injected with […] and […]. Pertussis toxin (200 ng/mouse) was applied intraperitoneally on day 0. Daily clinical evaluation as performed using a 5-point scale and the clinical progression was observed over 28 days (FIGS. 2C and 2D).

IL-8 = assay: Neutrophil Chemokine Production Assay: IL-8; type: cell-based; settings: human neutrophils, 12 h
Procedure: (§1) A volume 25 mL of human blood was layered over 15 mL of Histopaque®-1077 and centrifuged at 500 g, R^T, for 30 min with no break applied to the centrifuge. The PBMC band and Histopaque®-1077 layer were removed leaving behind the bottom red layer which was mixed with 40 mL of 1× red blood cell (RBC) lysis buffer (Sigma-Aldrich) was and split into two 50 mL tubes. The volume for both fractions was brought to 50 mL with RBC lysis buffer, mixed by inversion, and then incubated at RT for 10 min. Solutions were centrifuged at 250 g, for 10 min at RT and the supernatant liquids removed. The reddish pellets were re-suspended in 1 mL of RBC lysis buffer and combined. The cell suspension was incubated for 5 min at RT in RBC lysis buffer. After incubation 45 mL of Hanks Balanced Salt Solution with no calcium, magnesium or phenol red (HBSS—) was added, the cell suspension was spun (250 g for 10 min at RT), and supernatant liquids were removed. The white pellet was re-suspended in 1 mL of HBSS—, and cell counts were determined. The neutrophil cell suspension was brought to a concentration of 1.11e6 cells/mL in RPMI complete (Sigma-Aldrich), and 180 μL of cell suspension was transferred to all wells within a sterile 96-well tissue culture treated plate resulting in 2.0×10^5 cells/well. […] After incubation, 10 μL of 2 μg/mL LPS solution in RPMI complete was added to each well except for control wells, which received an additional 10 μL of media. Cells were incubated for 12 h (37° C., 5% CO2), after which plates were centrifuged at 250 g, RT, for 5 min and supernatant liquids were obtained and stored at −80° C. until analyzed via Luminex® Multiplex Assay for various chemokines and cytokines. Three data points were acquired from two different blood donors and averaged.

MIP-1α = assay: Neutrophil Chemokine Production Assay: MIP-1α; type: cell-based; settings: human neutrophils, 12 h
Procedure: as §1

MIP-1β = assay: Neutrophil Chemokine Production Assay: MIP-1β; type: cell-based; settings: human neutrophils, 12 h
Procedure: as §1

naïve CD4+ T cells = assay: Human Regulatory T Cell Differentiation Assay; type: cell-based; settings: 6 days; for Cell viability % DMSO: viability dye
Procedure: Peripheral blood mononuclear cells (PBMCs) from whole blood donated by health volunteers were separated by Ficoll-Paque gradient centrifugation and naïve CD4^+ T cells were subsequently isolated using magnet beads (EasySep™ Human Naïve CD4^+ T Cell Isolation Kit, Cambridge, Mass.). For regulatory T cell (Treg) differentiation assay, naïve CD4^+ T cells were cultured (1-10×10^4 cells) in CTS OpTmizer medium for 6 days and stimulated with 5 ng/ml TGF-β, 100 U/ml IL-2, and ImmunoCult™ Human […] T Cell Activator; Stemcell #10990) with/without our Compounds. Cell viability was determined using a viability dye (eBioscience Fixable Viability Dye eFluor 780: ThermoFisher 65-0865-14) at 1:500 dilution. The cells were gated for Treg, defined as Live, CD11c^−, CD14^−, CD19^−, CD8^−, CD4^+, CD3^+, CD25^+, FOXP3^+. Percent (%) Tregs were calculated as percentage of CD4^+, CD25^+, FOXP3^+ cells over total CD4^+ T cells. Statistical analysis was performed with GraphPad Prism Software Using One-Way ANOVA.

TNFα = assay: Cytokine Release from Human PBMCs: TNFα; type: cell-based; settings: LPS, 24 hours, Concentration 100 μM
Procedure: (§2) Human donor blood (8 mL) was collected in sodium citrate CPT tubes and centrifuged at 1,600×g for 20 minutes at room temperature. Buffy coat containing PBMCs was collected and transferred to a 50 mL conical tube containing 30 mL of RPMI-1640 medium at room temperature (supplemented with penicillin-streptomycin). PBMCs samples were centrifuged at 400×g for 10 minutes at 10° C. The pelleted PBMCs were washed twice in 10 ml of RPMI-1640 medium (supplemented with penicillin-streptomycin), then resuspended in RPMI-1640 medium (supplemented with penicillin-streptomycin, fetal bovine serum, and L-Glutamine). PBMCs were filtered through a 70 micron mesh to remove any cellular debris. […] PBMCs in a 96-well plate were rested for 30 minutes in a 37° C., 5% CO2 incubator, then subsequently treated with 10 μI of indicated compound. After 2 hours 10 μL of LPS (0111:64) 1 mg/mL was added to test wells. After 24 hours of incubation at 37° C., 5% CO2, 100 μL of cell supernatant was collected and transferred to a 96-well plate (non-tissue treated, flat bottom). The plate was centrifuged at 350×g for 5 minutes at room temperature, and then the clear supernatant transferred to a new 96-well plate (non-tissue treated, flat bottom). The remaining cells were tested for viability using CellTiter-Glo® Luminescent Cell Viability Assay (Promega). The supernatant was analyzed for TNFα, IL-6 and IL-1β (kit […] Systems), using Luminex Immunoassay Technology (MAGPIX System).

IL-6 = assay: Cytokine Release from Human PBMCs: IL-6; type: cell-based; settings: LPS, 24 hours, Concentration 100 μM
Procedure: as §2

IL-1β = assay: Cytokine Release from Human PBMCs: IL-1β; type: cell-based; settings: LPS, 24 hours, Concentration 100 μM
Procedure: as §2

Caco-2 colonocytes = assay: Human Caco-2 Barrier Integrity Assay, Study 1; type: cell-based; settings: Caco-2, + cytokines (TNFα, IFNγ, IL-1β), 48 hours
Procedure: Caco-2 colonocytes were maintained at 37° C. and 5% CO2 in Dulbecco's Modified Eagle Medium (DMEM) and supplemented with 10% FBS, 1% NEAA, 1% penicillin-streptomycin. At 70-80% confluency, cells were trypsinized and seeded in 0.4 cm^2 transwell collagen I coated membranes with supplemented DMEM in both apical and basolateral compartments. […] After 48 hours, TEER readings were taken again and viability was measured by CellTiter 96® AQueous One Solution Cell Proliferation Assay (Promega).

Row | SMILES | % IL-8 (Vehicle + LPS = 100%) (IL-8; Conc. 500.0 μM) | % IL-8 (Vehicle + LPS = 100%) (IL-8; Conc. 1000.0 μM) | % MIP-1α (Vehicle + LPS = 100%) (MIP-1α; Conc. 500.0 μM) | % MIP-1α (Vehicle + LPS = 100%) (MIP-1α; Conc. 1000.0 μM) | % MIP-1β (DMSO + LPS = 100%) (MIP-1β; Conc. 500.0 μM) | % MIP-1β (DMSO + LPS = 100%) (MIP-1β; Conc. 1000.0 μM) | TNFα % of DMSO control (TNFα) | IL6 % DMSO control (IL-6) | IL1β % DMSO control (IL-1β) | % Change in TEER from DMSO (Caco-2 colonocytes; 1 mM) | % Change in TEER from DMSO (Caco-2 colonocytes; 3 mM) | further results
1 | CCC(=O)O[C@@H]1[C@@H](OC(=O)CC)[C@H](OC(=O)/C=C/C(=O)OC)OC[C@H]1OC(=O)CC [Compound 20, Methyl ((2S,3R,4S,5R)-3,4,5-tris(propionyloxy)tetrahydro-2H-pyran-2-yl) fumarate] | – | – | – | – | – | – | – | – | – | – | – | Assay 1 (SGF) (% Remaining @ 1 hour) [1]: C (C: >75% of the tested compound remaining); Assay 2 (SIF) (% @ Remaining 4 hours) [2]: A (A: <25% of the tested compound remaining); Assay 3 (% Remaining at 24 h) [3]: C (C: >75% of the tested compound remaining); EAE score (5-point scale) compared to control (vehicle only) [4]: lower EAE scores
2 | O=C[C@H](O)[C@@H](O)[C@@H](O)CO [L-arabinose] | − (− = >90% Vehicle) | − (− = >90% Vehicle) | − (− = >90% Vehicle) | − (− = >90% Vehicle) | − (− = >90% Vehicle) | − (− = >90% Vehicle) | + ((+) 50% > <90% DMSO) | + ((+) 50% > <90% DMSO) | = ((=) 90% > <110% DMSO) | – | – | Cell viability % DMSO (naïve CD4+ T cells; 0.5 mM): = (90% > <110%: =); Cell viability % DMSO (naïve CD4+ T cells; 1 mM): = (90% > <110%: =); activity at 500 µM (naïve CD4+ T cells; Homo sapiens, 144 h, TGF-β, IL-2, 0.5 mM, read-out: Treg induction % DMSO): 90 to 110%; activity at 1000 µM (naïve CD4+ T cells; Homo sapiens, 144 h, TGF-β, IL-2, 1 mM, read-out: Treg induction % DMSO): 90 to 110%
3 | CC(=O)O [acetate] | − (− = >90% Vehicle) | − (− = >90% Vehicle) | + (+ = <90% Vehicle) | ++ (++ = <70% Vehicle) | + (+ = <90% Vehicle) | + (+ = <90% Vehicle) | = ((=) 90% > <110% DMSO) | = ((=) 90% > <110% DMSO) | = ((=) 90% > <110% DMSO) | − (<125%: −) | − (<125%: −) | % IL-8 (Vehicle + LPS = 100%) (IL-8; Conc. 3000.0 μM): +++ (+++ = <50% Vehicle); % MIP-1α (Vehicle + LPS = 100%) (MIP-1α; Conc. 3000.0 μM): +++ (+++ = <50% Vehicle); % MIP-1β (DMSO + LPS = 100%) (MIP-1β; Conc. 3000.0 μM): +++ (+++ = <50% Vehicle)
4 | CCCC(=O)O [butyrate] | ++ (++ = <70% Vehicle) | ++ (++ = <70% Vehicle) | +++ (+++ = <50% Vehicle) | +++ (+++ = <50% Vehicle) | +++ (+++ = <50% Vehicle) | +++ (+++ = <50% Vehicle) | ++ ((++) <50% DMSO) | + ((+) 50% > <90% DMSO) | − ((−) >110% DMSO) | − (<125%: −) | − (<125%: −) | % Change in TEER from DMSO (Caco-2 colonocytes; 5 mM): ++ (150% > <200%: ++)
5 | CC(O)CC(=O)O (stereo not drawn) [β-hydroxybutyrate] | – | – | – | – | – | – | − ((−) >110% DMSO) | = ((=) 90% > <110% DMSO) | − ((−) >110% DMSO) | – | – | % Change in TEER from DMSO (Caco-2 colonocytes; 200 μM): + (125% > <150%: +); % Change in TEER from DMSO (Caco-2 colonocytes; 2 mM): − (<125%: −)
